According to the kinase profiling compilation of Christmann-Franck et al. (2016):

How the values were obtained:
Experiment in all cases: radiometric filter-binding kinase assay
CLK2 (human) = CLK2 (human) (UniProt P49760)
MAPKAPK5 (human) = MAPKAPK5 (human) (UniProt Q8IW41)
TAOK1 (human) = TAOK1 (human) (UniProt Q7L7X3)
FLT1 (human) = FLT1 (human) (UniProt P17948)
MARK1 (human) = MARK1 (human) (UniProt Q9P0L2)
PRKCZ (human) = PRKCZ (human) (UniProt Q05513)
[1] = tested on: AKT2 (human), P31751 [S474D]
IGF1R (human) = IGF1R (human) (UniProt P08069)
CAMKK2 (human) = CAMKK2 (human) (UniProt Q96RR4)
EPHA2 (human) = EPHA2 (human) (UniProt P29317)
MAPK11 (human) = MAPK11 (human) (UniProt Q15759)
HIPK1 (human) = HIPK1 (human) (UniProt Q86Z02)
MELK (human) = MELK (human) (UniProt Q14680)
MAP3K1 (human) = MAP3K1 (human) (UniProt Q13233)
MINK1 (human) = MINK1 (human) (UniProt Q8N4C8)
INSR (human) = INSR (human) (UniProt P06213)
GSK3B (human) = GSK3B (human) (UniProt P49841)
IRAK4 (human) = IRAK4 (human) (UniProt Q9NWZ3)
MAPK14 (human) = MAPK14 (human) (UniProt Q16539)
MAPK15 (human) = MAPK15 (human) (UniProt Q8TD08)
ROCK2 (rat) = conditions: accession and sequence are those of the human protein
[2] = target: STK11 CAB39 STRADA (human) (UniProt Q9Y376+Q7RTN6+Q15831)
BRSK1 (human) = BRSK1 (human) (UniProt Q8TDC3)
LCK (mouse) = conditions: accession and sequence are those of the human protein
SRC (human) = SRC (human) (UniProt P12931)
CSNK1D (human) = CSNK1D (human) (UniProt P48730)
FGFR1 (human) = FGFR1 (human) (UniProt P11362)
RPS6KA3 KD1 KD2 (human) = RPS6KA3 KD1 KD2 (human) (UniProt P51812)
JAK2 JH1 JH2 (human) = JAK2 JH1 JH2 (human) (UniProt O60674)
HIPK3 (human) = HIPK3 (human) (UniProt Q9H422)
NTRK1 (human) = NTRK1 (human) (UniProt P04629)
DYRK3 (human) = DYRK3 (human) (UniProt O43781)
RIPK2 (human) = RIPK2 (human) (UniProt O43353)
CSK (human) = CSK (human) (UniProt P41240)
MAP3K7 TAB1 (human) = MAP3K7 TAB1 (human) (UniProt Q15750+O43318)

MAPKAPK5 (human), sequence (Q8IW41 whole entry, looked up): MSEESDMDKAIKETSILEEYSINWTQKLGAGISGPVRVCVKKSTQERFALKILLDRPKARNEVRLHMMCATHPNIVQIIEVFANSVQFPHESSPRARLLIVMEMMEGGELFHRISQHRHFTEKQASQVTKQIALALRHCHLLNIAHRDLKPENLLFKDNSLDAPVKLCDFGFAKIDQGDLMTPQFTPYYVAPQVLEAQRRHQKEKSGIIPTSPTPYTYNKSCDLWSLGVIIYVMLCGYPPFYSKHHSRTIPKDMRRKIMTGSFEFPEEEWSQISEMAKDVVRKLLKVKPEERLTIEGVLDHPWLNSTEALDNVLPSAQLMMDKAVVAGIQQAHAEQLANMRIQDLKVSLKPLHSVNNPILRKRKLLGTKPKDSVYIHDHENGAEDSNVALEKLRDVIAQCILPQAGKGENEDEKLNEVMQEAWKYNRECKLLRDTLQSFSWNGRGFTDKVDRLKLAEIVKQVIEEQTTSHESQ
HIPK3 (human), sequence (Q9H422 whole entry, looked up): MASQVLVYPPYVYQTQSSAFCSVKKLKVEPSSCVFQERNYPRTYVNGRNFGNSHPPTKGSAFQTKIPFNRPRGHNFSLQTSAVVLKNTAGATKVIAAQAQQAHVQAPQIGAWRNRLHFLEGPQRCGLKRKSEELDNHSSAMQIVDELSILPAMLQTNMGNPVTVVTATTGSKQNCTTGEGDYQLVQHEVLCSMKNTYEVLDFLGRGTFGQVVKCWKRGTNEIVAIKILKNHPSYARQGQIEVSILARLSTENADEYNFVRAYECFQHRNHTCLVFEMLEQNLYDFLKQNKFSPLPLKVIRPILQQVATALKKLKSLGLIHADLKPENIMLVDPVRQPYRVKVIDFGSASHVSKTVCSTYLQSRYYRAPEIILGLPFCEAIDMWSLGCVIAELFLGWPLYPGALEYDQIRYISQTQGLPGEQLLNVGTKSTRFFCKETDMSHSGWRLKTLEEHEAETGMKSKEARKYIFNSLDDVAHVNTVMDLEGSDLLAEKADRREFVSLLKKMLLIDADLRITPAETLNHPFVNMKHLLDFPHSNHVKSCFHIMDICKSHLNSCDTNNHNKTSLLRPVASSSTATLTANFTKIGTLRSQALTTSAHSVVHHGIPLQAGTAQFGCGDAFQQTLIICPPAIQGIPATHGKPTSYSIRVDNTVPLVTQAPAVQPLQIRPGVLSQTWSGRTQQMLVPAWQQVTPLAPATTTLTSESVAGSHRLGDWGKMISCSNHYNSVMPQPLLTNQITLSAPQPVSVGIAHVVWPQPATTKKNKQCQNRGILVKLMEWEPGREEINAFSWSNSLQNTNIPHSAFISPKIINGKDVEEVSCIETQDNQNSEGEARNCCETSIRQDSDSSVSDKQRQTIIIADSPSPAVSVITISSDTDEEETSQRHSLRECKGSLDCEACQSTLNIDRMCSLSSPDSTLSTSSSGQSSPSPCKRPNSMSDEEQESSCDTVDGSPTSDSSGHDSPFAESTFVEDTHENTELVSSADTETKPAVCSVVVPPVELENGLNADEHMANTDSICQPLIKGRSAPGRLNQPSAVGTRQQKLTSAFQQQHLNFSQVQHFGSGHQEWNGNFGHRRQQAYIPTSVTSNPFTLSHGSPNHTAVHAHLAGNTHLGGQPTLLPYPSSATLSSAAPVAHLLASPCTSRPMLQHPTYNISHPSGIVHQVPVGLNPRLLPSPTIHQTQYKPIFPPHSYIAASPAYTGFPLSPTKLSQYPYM
FGFR1 (human), sequence (P11362 whole entry, looked up): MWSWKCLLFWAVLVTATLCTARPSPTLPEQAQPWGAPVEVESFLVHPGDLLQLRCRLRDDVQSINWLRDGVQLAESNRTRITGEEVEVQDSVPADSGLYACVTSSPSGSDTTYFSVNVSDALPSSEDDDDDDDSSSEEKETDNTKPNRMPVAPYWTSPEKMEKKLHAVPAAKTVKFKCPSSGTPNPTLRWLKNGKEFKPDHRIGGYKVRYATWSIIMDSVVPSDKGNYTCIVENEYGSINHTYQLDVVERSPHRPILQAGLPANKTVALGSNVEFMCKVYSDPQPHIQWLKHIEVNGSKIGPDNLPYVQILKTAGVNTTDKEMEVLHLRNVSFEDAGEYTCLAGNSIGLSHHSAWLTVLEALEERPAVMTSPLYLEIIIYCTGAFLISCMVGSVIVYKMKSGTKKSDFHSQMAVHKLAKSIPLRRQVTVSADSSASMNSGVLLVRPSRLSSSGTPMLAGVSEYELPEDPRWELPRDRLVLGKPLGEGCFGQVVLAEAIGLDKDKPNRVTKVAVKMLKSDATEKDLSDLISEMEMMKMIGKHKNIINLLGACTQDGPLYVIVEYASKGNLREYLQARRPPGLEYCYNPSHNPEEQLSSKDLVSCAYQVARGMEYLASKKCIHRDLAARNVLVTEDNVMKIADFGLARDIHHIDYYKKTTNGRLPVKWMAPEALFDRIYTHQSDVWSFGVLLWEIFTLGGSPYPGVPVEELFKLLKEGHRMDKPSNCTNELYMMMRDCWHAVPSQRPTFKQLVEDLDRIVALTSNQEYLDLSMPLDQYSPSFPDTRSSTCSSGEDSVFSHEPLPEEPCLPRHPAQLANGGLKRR
MINK1 (human), sequence (Q8N4C8 whole entry, looked up): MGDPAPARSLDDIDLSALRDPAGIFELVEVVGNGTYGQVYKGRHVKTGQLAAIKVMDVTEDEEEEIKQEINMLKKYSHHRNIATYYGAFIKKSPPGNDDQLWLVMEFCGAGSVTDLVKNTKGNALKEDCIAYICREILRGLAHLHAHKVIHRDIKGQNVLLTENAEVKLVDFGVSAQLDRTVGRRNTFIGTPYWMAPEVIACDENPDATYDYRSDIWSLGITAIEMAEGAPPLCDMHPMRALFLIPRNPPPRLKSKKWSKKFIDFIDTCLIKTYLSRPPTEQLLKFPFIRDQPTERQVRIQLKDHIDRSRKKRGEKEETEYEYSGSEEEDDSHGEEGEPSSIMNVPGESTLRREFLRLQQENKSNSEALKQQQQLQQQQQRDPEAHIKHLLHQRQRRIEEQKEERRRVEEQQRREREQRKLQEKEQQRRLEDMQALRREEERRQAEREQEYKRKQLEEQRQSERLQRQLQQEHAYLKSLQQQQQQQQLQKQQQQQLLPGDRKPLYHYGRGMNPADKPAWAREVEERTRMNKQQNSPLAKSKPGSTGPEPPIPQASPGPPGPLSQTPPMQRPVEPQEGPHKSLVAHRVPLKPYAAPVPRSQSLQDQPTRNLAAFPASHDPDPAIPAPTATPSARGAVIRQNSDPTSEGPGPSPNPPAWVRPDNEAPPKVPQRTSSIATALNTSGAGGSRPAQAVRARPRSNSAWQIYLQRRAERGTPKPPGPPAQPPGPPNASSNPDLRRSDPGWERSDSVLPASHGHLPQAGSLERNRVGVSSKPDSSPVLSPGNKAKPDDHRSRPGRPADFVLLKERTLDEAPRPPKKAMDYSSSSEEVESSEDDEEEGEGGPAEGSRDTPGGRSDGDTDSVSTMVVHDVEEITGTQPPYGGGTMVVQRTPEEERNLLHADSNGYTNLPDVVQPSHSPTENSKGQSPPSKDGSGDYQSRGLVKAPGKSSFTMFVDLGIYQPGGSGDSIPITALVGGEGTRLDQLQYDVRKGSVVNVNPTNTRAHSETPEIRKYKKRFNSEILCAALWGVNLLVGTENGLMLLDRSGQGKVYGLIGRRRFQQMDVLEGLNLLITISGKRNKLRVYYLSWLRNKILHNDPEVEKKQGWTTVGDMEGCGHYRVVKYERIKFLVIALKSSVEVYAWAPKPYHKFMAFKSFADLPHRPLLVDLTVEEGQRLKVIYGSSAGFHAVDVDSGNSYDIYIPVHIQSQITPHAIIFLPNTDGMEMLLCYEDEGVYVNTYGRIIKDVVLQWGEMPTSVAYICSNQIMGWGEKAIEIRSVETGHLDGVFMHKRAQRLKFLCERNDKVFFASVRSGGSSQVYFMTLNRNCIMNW
DYRK3 (human), sequence (O43781 whole entry, looked up): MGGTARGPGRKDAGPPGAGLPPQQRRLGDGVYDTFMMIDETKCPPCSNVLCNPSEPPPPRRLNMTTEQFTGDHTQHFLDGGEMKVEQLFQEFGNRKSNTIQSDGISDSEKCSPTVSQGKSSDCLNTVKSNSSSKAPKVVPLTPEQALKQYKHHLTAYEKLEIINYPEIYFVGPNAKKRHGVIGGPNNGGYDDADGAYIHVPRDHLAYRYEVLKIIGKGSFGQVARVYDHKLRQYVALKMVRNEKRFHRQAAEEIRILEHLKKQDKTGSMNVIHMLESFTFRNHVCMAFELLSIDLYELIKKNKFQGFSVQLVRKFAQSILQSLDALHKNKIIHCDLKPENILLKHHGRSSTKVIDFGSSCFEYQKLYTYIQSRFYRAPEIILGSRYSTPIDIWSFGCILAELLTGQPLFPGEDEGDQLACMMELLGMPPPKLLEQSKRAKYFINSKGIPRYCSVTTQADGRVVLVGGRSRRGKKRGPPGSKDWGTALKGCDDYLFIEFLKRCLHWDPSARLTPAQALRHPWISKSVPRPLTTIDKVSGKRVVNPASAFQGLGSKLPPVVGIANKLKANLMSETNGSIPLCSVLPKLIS
MELK (human), sequence (Q14680 whole entry, looked up): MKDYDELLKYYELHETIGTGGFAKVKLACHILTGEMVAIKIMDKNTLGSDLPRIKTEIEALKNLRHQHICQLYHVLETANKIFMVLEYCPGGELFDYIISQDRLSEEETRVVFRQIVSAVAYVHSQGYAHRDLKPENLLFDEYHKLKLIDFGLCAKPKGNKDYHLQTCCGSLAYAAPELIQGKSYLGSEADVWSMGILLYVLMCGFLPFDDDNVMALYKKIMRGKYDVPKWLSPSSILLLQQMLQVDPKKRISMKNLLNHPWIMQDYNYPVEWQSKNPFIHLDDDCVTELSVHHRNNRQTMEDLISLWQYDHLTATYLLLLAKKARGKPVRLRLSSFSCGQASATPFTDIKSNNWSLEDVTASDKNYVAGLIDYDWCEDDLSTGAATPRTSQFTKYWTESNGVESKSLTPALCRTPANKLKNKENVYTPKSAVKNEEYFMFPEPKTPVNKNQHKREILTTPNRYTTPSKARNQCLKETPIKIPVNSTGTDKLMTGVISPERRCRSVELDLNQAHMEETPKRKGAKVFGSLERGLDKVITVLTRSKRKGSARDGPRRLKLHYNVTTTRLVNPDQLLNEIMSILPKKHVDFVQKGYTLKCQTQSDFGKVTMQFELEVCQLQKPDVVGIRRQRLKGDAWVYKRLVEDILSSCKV

COc1cc(O)c2c(c1)[C@H]1OC1C[C@H](O)[C@H](O)C(=O)/C=C\C[C@H](C)OC2=O (stereo partly drawn)
residual activity (CLK2 (human); compound 0.01 µM): 94% | residual activity (CLK2 (human); compound 0.1 µM): 100% | residual activity (MAPKAPK5 (human); compound 0.01 µM): 74% | residual activity (MAPKAPK5 (human); compound 0.1 µM): 72% | residual activity (MAPKAPK5 (human); compound 1.0 µM): 32% | residual activity (TAOK1 (human); compound 0.01 µM): 106% | residual activity (TAOK1 (human); compound 0.1 µM): 101% | residual activity (TAOK1 (human); compound 1.0 µM): 100% | residual activity (FLT1 (human); compound 0.01 µM): 65% | residual activity (FLT1 (human); compound 0.1 µM): 5% | residual activity (FLT1 (human); compound 1.0 µM): 3% | residual activity (MARK1 (human); compound 0.01 µM): 101% | residual activity (MARK1 (human); compound 0.1 µM): 99% | residual activity (MARK1 (human); compound 1.0 µM): 101% | residual activity (PRKCZ (human); compound 0.01 µM): 97% | residual activity (PRKCZ (human); compound 0.1 µM): 78% | residual activity (PRKCZ (human); compound 1.0 µM): 105% | residual activity ([1]; compound 0.01 µM): 105% | residual activity ([1]; compound 0.1 µM): 103% | residual activity (IGF1R (human); compound 0.01 µM): 103% | residual activity (IGF1R (human); compound 0.1 µM): 100% | residual activity (CAMKK2 (human); compound 0.01 µM): 102% | residual activity (CAMKK2 (human); compound 0.1 µM): 99% | residual activity (EPHA2 (human); compound 0.01 µM): 97% | residual activity (EPHA2 (human); compound 0.1 µM): 98% | residual activity (EPHA2 (human); compound 1.0 µM): 56% | residual activity (MAPK11 (human); compound 0.01 µM): 88% | residual activity (MAPK11 (human); compound 0.1 µM): 93% | residual activity (MAPK11 (human); compound 1.0 µM): 98% | residual activity (HIPK1 (human); compound 0.01 µM): 111% | residual activity (HIPK1 (human); compound 0.1 µM): 99% | residual activity (HIPK1 (human); compound 1.0 µM): 95% | residual activity (MELK (human); compound 0.01 µM): 92% | residual activity (MELK (human); compound 0.1 µM): 100% | residual activity (MELK (human); compound 1.0 µM): 104% | residual activity (MAP3K1 (human); compound 0.01 µM): 112% | residual activity (MAP3K1 (human); compound 0.1 µM): 101% | residual activity (MAP3K1 (human); compound 1.0 µM): 102% | residual activity (MINK1 (human); compound 0.01 µM): 106% | residual activity (MINK1 (human); compound 0.1 µM): 111% | residual activity (MINK1 (human); compound 1.0 µM): 102% | residual activity (INSR (human); compound 0.01 µM): 112% | residual activity (INSR (human); compound 0.1 µM): 116% | residual activity (INSR (human); compound 1.0 µM): 97% | residual activity (GSK3B (human); compound 0.01 µM): 91% | residual activity (GSK3B (human); compound 0.1 µM): 106% | residual activity (IRAK4 (human); compound 0.01 µM): 112% | residual activity (IRAK4 (human); compound 0.1 µM): 99% | residual activity (IRAK4 (human); compound 1.0 µM): 57% | residual activity (MAPK14 (human); compound 0.01 µM): 108% | residual activity (MAPK14 (human); compound 0.1 µM): 105% | residual activity (MAPK14 (human); compound 1.0 µM): 105% | residual activity (MAPK15 (human); compound 0.01 µM): 80% | residual activity (MAPK15 (human); compound 0.1 µM): 27% | residual activity (MAPK15 (human); compound 1.0 µM): 11% | residual activity (ROCK2 (rat); compound 0.01 µM): 91% | residual activity (ROCK2 (rat); compound 0.1 µM): 94% | residual activity (ROCK2 (rat); compound 1.0 µM): 99% | residual activity ([2]; compound 0.01 µM): 119% | residual activity ([2]; compound 0.1 µM): 120% | residual activity ([2]; compound 1.0 µM): 104% | residual activity (BRSK1 (human); compound 0.01 µM): 90% | residual activity (BRSK1 (human); compound 0.1 µM): 90% | residual activity (BRSK1 (human); compound 1.0 µM): 82% | residual activity (LCK (mouse); compound 0.01 µM): 79% | residual activity (LCK (mouse); compound 0.1 µM): 93% | residual activity (LCK (mouse); compound 1.0 µM): 69% | residual activity (SRC (human); compound 0.01 µM): 96% | residual activity (SRC (human); compound 0.1 µM): 91% | residual activity (SRC (human); compound 1.0 µM): 86% | residual activity (CSNK1D (human); compound 0.01 µM): 116% | residual activity (CSNK1D (human); compound 0.1 µM): 101% | residual activity (FGFR1 (human); compound 0.01 µM): 118% | residual activity (FGFR1 (human); compound 0.1 µM): 154% | residual activity (RPS6KA3 KD1 KD2 (human); compound 0.01 µM): 129% | residual activity (RPS6KA3 KD1 KD2 (human); compound 0.1 µM): 125% | residual activity (RPS6KA3 KD1 KD2 (human); compound 1.0 µM): 129% | residual activity (JAK2 JH1 JH2 (human); compound 0.01 µM): 84% | residual activity (JAK2 JH1 JH2 (human); compound 0.1 µM): 101% | residual activity (HIPK3 (human); compound 0.01 µM): 104% | residual activity (HIPK3 (human); compound 0.1 µM): 100% | residual activity (HIPK3 (human); compound 1.0 µM): 102% | residual activity (NTRK1 (human); compound 0.01 µM): 97% | residual activity (NTRK1 (human); compound 0.1 µM): 90% | residual activity (NTRK1 (human); compound 1.0 µM): 67% | residual activity (DYRK3 (human); compound 0.01 µM): 113% | residual activity (DYRK3 (human); compound 0.1 µM): 109% | residual activity (DYRK3 (human); compound 1.0 µM): 124% | residual activity (RIPK2 (human); compound 0.01 µM): 104% | residual activity (RIPK2 (human); compound 0.1 µM): 102% | residual activity (RIPK2 (human); compound 1.0 µM): 85% | residual activity (CSK (human); compound 0.1 µM): 105% | residual activity (MAP3K7 TAB1 (human); compound 0.01 µM): 101% | residual activity (MAP3K7 TAB1 (human); compound 0.1 µM): 48% | residual activity (MAP3K7 TAB1 (human); compound 1.0 µM): 2%

O=c1c(O)c(-c2ccc(O)c(O)c2)oc2cc(O)c(O)c(O)c12
residual activity (CLK2 (human); compound 1.0 µM): 58% | residual activity (MAPKAPK5 (human); compound 1.0 µM): 87% | residual activity (MAPKAPK5 (human); compound 10.0 µM): 1% | residual activity (TAOK1 (human); compound 1.0 µM): 94% | residual activity (FLT1 (human); compound 1.0 µM): 27% | residual activity (FLT1 (human); compound 10.0 µM): 7% | residual activity (MARK1 (human); compound 1.0 µM): 40% | residual activity (MARK1 (human); compound 10.0 µM): 11% | residual activity (PRKCZ (human); compound 1.0 µM): 62% | residual activity (PRKCZ (human); compound 10.0 µM): 20% | residual activity ([1]; compound 1.0 µM): 21% | residual activity ([1]; compound 10.0 µM): 1% | residual activity (IGF1R (human); compound 1.0 µM): 96% | residual activity (IGF1R (human); compound 10.0 µM): 43% | residual activity (CAMKK2 (human); compound 1.0 µM): 72% | residual activity (CAMKK2 (human); compound 10.0 µM): 61% | residual activity (EPHA2 (human); compound 1.0 µM): 94% | residual activity (EPHA2 (human); compound 10.0 µM): 73% | residual activity (MAPK11 (human); compound 1.0 µM): 101% | residual activity (MAPK11 (human); compound 10.0 µM): 90% | residual activity (HIPK1 (human); compound 1.0 µM): 93% | residual activity (HIPK1 (human); compound 10.0 µM): 11% | residual activity (MELK (human); compound 1.0 µM): 53% | residual activity (MELK (human); compound 10.0 µM): 9% | residual activity (MAP3K1 (human); compound 1.0 µM): 67% | residual activity (MAP3K1 (human); compound 10.0 µM): 74% | residual activity (MINK1 (human); compound 1.0 µM): 56% | residual activity (MINK1 (human); compound 10.0 µM): 10% | residual activity (INSR (human); compound 1.0 µM): 86% | residual activity (INSR (human); compound 10.0 µM): 62% | residual activity (GSK3B (human); compound 1.0 µM): 94% | residual activity (GSK3B (human); compound 10.0 µM): 19% | residual activity (IRAK4 (human); compound 1.0 µM): 80% | residual activity (IRAK4 (human); compound 10.0 µM): 46% | residual activity (MAPK14 (human); compound 1.0 µM): 100% | residual activity (MAPK14 (human); compound 10.0 µM): 119% | residual activity (MAPK15 (human); compound 1.0 µM): 89% | residual activity (MAPK15 (human); compound 10.0 µM): 65% | residual activity (ROCK2 (rat); compound 1.0 µM): 95% | residual activity (ROCK2 (rat); compound 10.0 µM): 56% | residual activity ([2]; compound 1.0 µM): 95% | residual activity ([2]; compound 10.0 µM): 55% | residual activity (BRSK1 (human); compound 1.0 µM): 82% | residual activity (BRSK1 (human); compound 10.0 µM): 7% | residual activity (LCK (mouse); compound 1.0 µM): 102% | residual activity (LCK (mouse); compound 10.0 µM): 95% | residual activity (SRC (human); compound 1.0 µM): 38% | residual activity (SRC (human); compound 10.0 µM): 25% | residual activity (CSNK1D (human); compound 1.0 µM): 90% | residual activity (CSNK1D (human); compound 10.0 µM): 29% | residual activity (FGFR1 (human); compound 1.0 µM): 27% | residual activity (FGFR1 (human); compound 10.0 µM): 14% | residual activity (RPS6KA3 KD1 KD2 (human); compound 1.0 µM): 22% | residual activity (RPS6KA3 KD1 KD2 (human); compound 10.0 µM): 12% | residual activity (JAK2 JH1 JH2 (human); compound 1.0 µM): 91% | residual activity (JAK2 JH1 JH2 (human); compound 10.0 µM): 13% | residual activity (HIPK3 (human); compound 1.0 µM): 88% | residual activity (HIPK3 (human); compound 10.0 µM): 55% | residual activity (NTRK1 (human); compound 1.0 µM): 92% | residual activity (NTRK1 (human); compound 10.0 µM): 29% | residual activity (DYRK3 (human); compound 1.0 µM): 59% | residual activity (DYRK3 (human); compound 10.0 µM): 2% | residual activity (RIPK2 (human); compound 1.0 µM): 83% | residual activity (RIPK2 (human); compound 10.0 µM): 7% | residual activity (CSK (human); compound 1.0 µM): 125% | residual activity (CSK (human); compound 10.0 µM): 74% | residual activity (MAP3K7 TAB1 (human); compound 1.0 µM): 94% | residual activity (MAP3K7 TAB1 (human); compound 10.0 µM): 5%
